17 molecules from patent US20240057606A1, “MOLECULES HAVING CERTAIN PESTICIDAL UTILITIES, AND INTERMEDIATES, COMPOSITIONS, AND PROCESSES RELATED THERETO” (priority 2020, published 2024) can be followed below.

Assay type in all cases: in vivo
The test system of series [1] is Beet Armyworm (Spodoptera exigua, "BAW"). Description: Bioassay on beet armyworm, 128-well diet tray assay. To be noted: 168 h, 50 μg/cm^2 of test compound on artificial diet, second instar larvae, 25° C., five to seven days, average of eight wells, read-out: BAW % Control (or Mortality) rating. The protocol: (§1) Bioassays on Beet Armyworm (Spodoptera exigua, “BAW”) and Cabbage Looper (Trichoplusia ni, “CL”)
(§2) Certain molecules disclosed in this document were tested against BAW and CL using procedures described in the following examples. In the reporting of the results, the “BAW & CL Rating Table” was used (See Table Section).
Bioassays on BAW were conducted using a 128-well diet tray assay. one to five second instar BAW larvae were placed in each well (3 mL) of the diet tray that had been previously filled with 1 mL of artificial diet to which 50 μg/cm^2 of the test compound (dissolved in 50 μL of 90:10 acetone-water mixture) had been applied (to each of eight wells) and then allowed to dry. Trays were covered with a clear self-adhesive cover and held at 25° C., 14:10 light-dark cycle for five to seven days. Percent mortality was recorded for the larvae in each well; activity in the eight wells was then averaged. The results are indicated in the table entitled “Table ABC: Biological Results” (See Table Section).

The test system of series [2] is Cabbage Looper (Trichoplusia ni, "CL"). Description: Bioassay on cabbage looper, 128-well diet tray assay. To be noted: 168 h, 50 μg/cm^2 of test compound on artificial diet, second instar larvae, 25° C., five to seven days, average of eight wells, read-out: CL % Control (or Mortality) rating. The protocol: as §1, §2
Bioassays on CL were conducted using a 128-well diet tray assay. one to five second instar CL larvae were placed in each well (3 mL) of the diet tray that had been previously filled with 1 mL of artificial diet to which 50 μg/cm^2 of the test compound (dissolved in 50 μL of 90:10 acetone-water mixture) had been applied (to each of eight wells) and then allowed to dry. Trays were covered with a clear self-adhesive cover and held at 25° C., 14:10 light-dark cycle for five to seven days. Percent mortality was recorded for the larvae in each well; activity in the eight wells was then averaged. The results are indicated in the table entitled “Table ABC: Biological Results” (See Table Section).

Series [3] concerns Yellow Fever Mosquito (Aedes aegypti, "YFM"). Description: Bioassay on yellow fever mosquito larvae, 96-well plate assay. To be noted: 4000 ppm DMSO master solution diluted with 90:10 water:acetone; about 1 day-old larvae; room temperature; scored after 3 days. The protocol: Bioassays On Yellow Fever Mosquito (Aedes aegypti, “YFM”)
Certain molecules disclosed in this document were tested against YFM using procedures described in the following paragraph. In the reporting of the results, the “YFM Rating Table” was used (See Table Section).
Master plates containing 400 μg of a molecule dissolved in 100 μL of dimethyl sulfoxide (DMSO) (equivalent to a 4000 ppm solution) are used. A master plate of assembled molecules contains 15 μL per well. To this plate, 135 μL of a 90:10 water:acetone mixture is added to each well. A robot (Biomek® NXP Laboratory Automation Workstation) is programmed to dispense 15 μL aspirations from the master plate into an empty 96-well shallow plate (“daughter” plate). There are 6 reps (“daughter” plates) created per master. The created daughter plates are then immediately infested with YFM larvae.
The day before plates are to be treated, mosquito eggs are placed in Millipore water containing liver powder to begin hatching (4 g. into 400 mL). After the daughter plates are created using the robot, they are infested with 220 μL of the liver powder/larval mosquito mixture (about 1 day-old larvae). After plates are infested with mosquito larvae, a non-evaporative lid is used to cover the plate to reduce drying. Plates are held at room temperature for 3 days prior to grading. After 3 days, each well is observed and scored based on mortality.

A word on the mortality: it is the percentage killed. For the molecule `O=C(/N=C1\SCC(=O)N1c1cccc2c1OCC2)Nc1ccc(-c2ncn(-c3ccc(OC(F)(F)F)cc3)n2)cc1F` [F9, (Z)-1-(3-(2,3-Dihydrobenzofuran-7-yl)-4-oxothiazolidin-2-ylidene)-3-(2-fluoro-4-(1-(4-(trifluoromethoxy)phenyl)-1H-1,2,4-triazol-3-yl)phenyl)urea], the mortality at 50 µg/cm2 in series [1] and in series [2] was 50 to 100% each time.

`Cc1cc(-c2ncn(-c3ccc(OC(F)(F)C(F)(F)F)cc3)n2)ccc1NC(=O)/N=C1\SCC(=O)N1c1cccc2c1CCO2` [F25, (Z)-1-(3-(2,3-Dihydrobenzofuran-4-yl)-4-oxothiazolidin-2-ylidene)-3-(2-methyl-4-(1-(4-(perfluoroethoxy)phenyl)-1H-1,2,4-triazol-3-yl)phenyl)urea]: the mortality at 50 µg/cm2 in series [1] and in series [2] was 50 to 100% throughout.

As to `Cn1ccc2cc(N3C(=O)CS/C3=N\C(=O)Nc3ccc(-c4ncn(-c5ccc(C(F)(F)C(F)(F)F)cc5)n4)cc3F)ccc21` [F24, (Z)-1-(2-Fluoro-4-(1-(4-(perfluoroethyl)phenyl)-1H-1,2,4-triazol-3-yl)phenyl)-3-(3-(1-methyl-1H-indol-5-yl)-4-oxothiazolidin-2-ylidene)urea], the “YFM % Control (or Mortality) rating” value in series [3] is recorded as “D (No activity noticed in this bioassay)”.

`O=C(/N=C1\SCC(=O)N1c1ccc2c(c1)C(=O)OC2=O)Nc1ccc(-c2ncn(-c3ccc(OC(F)(F)F)cc3)n2)cc1F` [F11, (Z)-1-(3-(1,3-Dioxo-1,3-dihydroisobenzofuran-5-yl)-4-oxothiazolidin-2-ylidene)-3-(2-fluoro-4-(1-(4-(trifluoromethoxy)phenyl)-1H-1,2,4-triazol-3-yl)phenyl)urea]: the mortality at 50 µg/cm2 was 0% in series [1] and 50 to 100% in series [2].

In the case of `O=C(/N=C1\SCC(=O)N1c1cccc2c1COC2)Nc1ccc(-c2ncn(-c3ccc(OC(F)(F)F)cc3)n2)cc1F` [F8, (Z)-1-(3-(1,3-Dihydroisobenzofuran-4-yl)-4-oxothiazolidin-2-ylidene)-3-(2-fluoro-4-(1-(4-(trifluoromethoxy)phenyl)-1H-1,2,4-triazol-3-yl)phenyl)urea], the mortality at 50 µg/cm2 in series [1] and in series [2] was 50 to 100% in each case.

For the molecule `Cc1cc(-c2ncn(-c3ccc(OC(F)(F)F)cc3)n2)ccc1NC(=O)/N=C1\SCC(=O)N1c1cc2c(cc1COCC(F)(F)F)OCO2` [F1], the mortality at 50 µg/cm2 in series [1] and in series [2] was 50 to 100% throughout.

For the molecule `O=C(/N=C1\SCC(=O)N1c1cccc2ocnc12)Nc1ccc(-c2ncn(-c3ccc(OC(F)(F)F)cc3)n2)cc1F` [F7, (Z)-1-(3-(Benzo[d]oxazol-4-yl)-4-oxothiazolidin-2-ylidene)-3-(2-fluoro-4-(1-(4-(trifluoromethoxy)phenyl)-1H-1,2,4-triazol-3-yl)phenyl)urea], the mortality at 50 µg/cm2 in series [1] and in series [2] was 50 to 100% each time.

As for `O=C(/N=C1\SCC(=O)N1c1cc2c(cc1COCC(F)(F)F)OCO2)Nc1ccc(-c2ncn(-c3ccc(OC(F)(F)F)cc3)n2)cc1F` [F2, (Z)-1-(2-Fluoro-4-(1-(4-(trifluoromethoxy)phenyl)-1H-1,2,4-triazol-3-yl)phenyl)-3-(4-oxo-3-(6-((2,2,2-trifluoroethoxy)methyl)benzo[d][1,3]dioxol-5-yl)thiazolidin-2-ylidene)urea], the mortality at 50 µg/cm2 in series [1] and in series [2] was 50 to 100% in each case.

With `O=C(/N=C1\SCC(=O)N1c1cccc2c1CCC2)Nc1ccc(-c2ncn(-c3ccc(OC(F)(F)F)cc3)n2)cc1F` [F10, (Z)-1-(3-(2,3-Dihydro-1H-inden-4-yl)-4-oxothiazolidin-2-ylidene)-3-(2-fluoro-4-(1-(4-(trifluoromethoxy)phenyl)-1H-1,2,4-triazol-3-yl)phenyl)urea], the mortality at 50 µg/cm2 in series [1] and in series [2] was 50 to 100% in each case.

With `Cn1ccc2c(N3C(=O)CS/C3=N\C(=O)Nc3ccc(-c4ncn(-c5ccc(C(F)(F)C(F)(F)F)cc5)n4)cc3F)cccc21` [F30, (Z)-1-(2-Fluoro-4-(1-(4-(perfluoroethyl)phenyl)-1H-1,2,4-triazol-3-yl)phenyl)-3-(3-(1-methyl-1H-indol-4-yl)-4-oxothiazolidin-2-ylidene)urea], in series [3], the “YFM % Control (or Mortality) rating” value was “A (80-100)”.

In the case of `Cc1cc(-c2ncn(-c3ccc(OC(F)(F)C(F)(F)F)cc3)n2)ccc1NC(=O)/N=C1\SCC(=O)N1c1cccc2c1OCC2` [F28, (Z)-1-(3-(2,3-Dihydrobenzofuran-7-yl)-4-oxothiazolidin-2-ylidene)-3-(2-methyl-4-(1-(4-(perfluoroethoxy)phenyl)-1H-1,2,4-triazol-3-yl)phenyl)urea], the “YFM % Control (or Mortality) rating” value in series [3] is given as “A (80-100)”.

`O=C(/N=C1\SCC(=O)N1c1cccc2ccoc12)Nc1ccc(-c2ncn(-c3ccc(OC(F)(F)F)cc3)n2)cc1F` [F5, (Z)-1-(3-(Benzofuran-7-yl)-4-oxothiazolidin-2-ylidene)-3-(2-fluoro-4-(1-(4-(trifluoromethoxy)phenyl)-1H-1,2,4-triazol-3-yl)phenyl)urea]: the mortality at 50 µg/cm2 in series [1] and in series [2] was 50 to 100% each time.

Consider `O=C(/N=C1\SCC(=O)N1c1cccc2occc12)Nc1ccc(-c2ncn(-c3ccc(OC(F)(F)F)cc3)n2)cc1F` [F4, (Z)-1-(3-(Benzofuran-4-yl)-4-oxothiazolidin-2-ylidene)-3-(2-fluoro-4-(1-(4-(trifluoromethoxy)phenyl)-1H-1,2,4-triazol-3-yl)phenyl)urea], for which the mortality at 50 µg/cm2 in series [1] and in series [2] was 50 to 100% in each case.

In the case of `O=C(/N=C1\SCC(=O)N1c1cc2c(cc1COCC(F)(F)F)OCO2)Nc1ccc(-c2ncn(-c3ccc(S(F)(F)(F)(F)F)cc3)n2)cc1F` [F3, (Z)-1-(2-Fluoro-4-(1-(4-(pentafluoro-λ^6-sulfaneyl)phenyl)-1H-1,2,4-triazol-3-yl)phenyl)-3-(4-oxo-3-(6-((2,2,2-trifluoroethoxy)methyl)benzo[d][1,3]dioxol-5-yl)thiazolidin-2-ylidene)urea], the mortality at 50 µg/cm2 in series [1] and in series [2] was 50 to 100% throughout.

Regarding `Cc1cc(-c2ncn(-c3ccc(OC(F)(F)C(F)(F)F)cc3)n2)ccc1NC(=O)/N=C1\SCC(=O)N1c1cccc2ccccc12` [F26, (Z)-1-(2-Methyl-4-(1-(4-(perfluoroethoxy)phenyl)-1H-1,2,4-triazol-3-yl)phenyl)-3-(3-(naphthalen-1-yl)-4-oxothiazolidin-2-ylidene)urea], the mortality at 50 µg/cm2 in series [1] and in series [2] was 50 to 100% throughout.

As for `Cc1cc(-c2ncn(-c3ccc(OC(F)(F)C(F)(F)F)cc3)n2)ccc1NC(=O)/N=C1\SCC(=O)N1c1ccc2c(ccn2C)c1` [F31, (Z)-1-(3-(1-Methyl-1H-indol-5-yl)-4-oxothiazolidin-2-ylidene)-3-(2-methyl-4-(1-(4-(perfluoroethoxy)phenyl)-1H-1,2,4-triazol-3-yl)phenyl)urea], the “YFM % Control (or Mortality) rating” value in series [3] was “A (80-100)”.

With `O=C(/N=C1\SCC(=O)N1c1cccc2ncccc12)Nc1ccc(-c2ncn(-c3ccc(C(F)(F)C(F)(F)F)cc3)n2)cc1F` [F34, (Z)-1-(2-Fluoro-4-(1-(4-(perfluoroethyl)phenyl)-1H-1,2,4-triazol-3-yl)phenyl)-3-(4-oxo-3-(quinolin-5-yl)thiazolidin-2-ylidene)urea], the “YFM % Control (or Mortality) rating” value in series [3] is “A (80-100)”.
